Source: patent publication US20240398806A1, “Compositions For and Methods of Treating and/or Preventing Pain” (Duke University, priority 2021, published 2024)
Like-named read-outs stand apart in the source and are kept apart here.

How the values were obtained:
[1] = target: T1, NTSR2 (Homo sapiens, UniProt O95665); assay: Cellular assay of β-arrestin-2 translocation in cells expressing NTSR2; assay type: cell-based
T1 construct: expressed in transfected cells; host or cells: HEK293 cells
Description: (§1) First, using cellular assays, whether IND candidates such as SBI-810 are similar or better than SBI-553 as β-arrestin biased agonist at NTSR1. is assessed. The chemical entities used in this work were synthesized and validated. However, routine validation of the profile of these compounds is performed routinely using both cellular and in vivo assays. For example, HEK293 cells that express either the NTSR1 or NTSR2 are used to assess the functional profile of the various chemical probes. In addition, a series of genetically engineered mouse lines are used to provide an in vivo validation of novel chemical entities for their abilities to module behaviors in these animals.
(§2) Fourth, cellular assays are used to establish that IND ready analogs like SBI-810 are still selective for the NTSR1 rather than NTSR2. The specificity of the lead compounds toward NTSR1. NTSR2. and β-arrestin-2 are tested in respective cellular assays. More specifically, cells expressing either NTSR1 or NTSR2 are used to assess the function of various compound. […] This translocation is not observed in cells expressing NTSR2.
(§3) Fourth, genetically engineered mice are used to assess the effects and mechanisms of novel ligands. The specificity of the lead compounds toward NTSR1, NTSR2, and β-arrestin-2 dependent signaling is examined. […]

[2] = Central blood pressure (systolic ventricular pressure) in anesthetized mice; assay type: in vivo, C57BL/6J mice; conditions: 12 mg/kg, i.p.
Description: SBI-553 treatment was not associated with hypothermia or hypotension. In addition to modulating motivated behavior. […] SBI-553 (at 2-30 mg/kg, i.p.) had no effect on core body temperature (FIG. 6B). […] This was an effect not secondary to hypothermia as body temperature was maintained by thermal support. These findings indicate that a Gq protein-dependent mechanism mediates NTSR1-associated side effects and is not engaged by SBI-553. Consistent with an antagonist like action at NTSR1.

[3] = target: T2, NTSR1 (Homo sapiens, UniProt P30989); assay: Confocal β-arrestin2 translocation assay in U2OS cells expressing NTSR1 and β-arrestin2-GFP; assay type: cell-based; set-up: expressed in transfected cells; also transient transfection; conditions: compared with NT
Description: Scale bar, […]. […] The ordinate axis in counts per minute (CPM) represents specifically bound ^125I-NT. In each experiment, the assays were conducted in quadruplicate, and data are expressed as the mean+SEM (n=4 separate experiments) and were analyzed using one-way ANOVA with Tukey's multiple comparison post hoc test. Curve fitting and statistical analyses were performed using GraphPad Prism V5.04.
The translocation of β-arrestin2 to the membrane by NTSR1 was assessed using a U2OS cell line permanently expressing the NTSR1 and green fluorescent protein (GFP) tagged-β-arrestin2, as described (Barak et al., 2016). Briefly, on day 1, stable cells were split into MGB101-1-2-LG glass-bottom 384-well plates (MatriCal, Spokane, WA, USA). Each well contained 30) mL aliquots of 8,000 cells in Minimum Eagle's medium (MEM) containing 10% fetal bovine serum (FBS) and 100 U/mL penicillin/streptomycin (Life Technologies, Grand Island, NY, USA). The plates were incubated overnight at 37°° C, in 5% CO2, and on the following day the media was changed to […] serum-and phenol red-free MEM. […] After treatment, plates were returned to the incubator for 40 min. […] Images were analyzed using a wavelet algorithm to measure formation of fluorescence aggregates (Evron et al., 2014). […] Analyzed image results were visually confirmed. […]
Target sequence in this assay (P30989 whole entry): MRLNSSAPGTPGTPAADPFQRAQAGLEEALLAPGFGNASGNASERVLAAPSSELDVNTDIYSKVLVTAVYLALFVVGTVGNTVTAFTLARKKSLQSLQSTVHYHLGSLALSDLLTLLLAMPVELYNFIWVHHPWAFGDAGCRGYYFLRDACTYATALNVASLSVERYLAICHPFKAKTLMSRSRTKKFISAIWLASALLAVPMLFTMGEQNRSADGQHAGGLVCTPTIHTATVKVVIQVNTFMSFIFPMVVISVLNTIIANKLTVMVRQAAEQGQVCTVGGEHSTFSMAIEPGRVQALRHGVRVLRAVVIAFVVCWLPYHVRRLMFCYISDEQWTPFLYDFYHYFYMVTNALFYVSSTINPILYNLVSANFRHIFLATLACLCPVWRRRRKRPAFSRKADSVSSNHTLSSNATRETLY
Target sequence in this assay (P32121 whole entry partner): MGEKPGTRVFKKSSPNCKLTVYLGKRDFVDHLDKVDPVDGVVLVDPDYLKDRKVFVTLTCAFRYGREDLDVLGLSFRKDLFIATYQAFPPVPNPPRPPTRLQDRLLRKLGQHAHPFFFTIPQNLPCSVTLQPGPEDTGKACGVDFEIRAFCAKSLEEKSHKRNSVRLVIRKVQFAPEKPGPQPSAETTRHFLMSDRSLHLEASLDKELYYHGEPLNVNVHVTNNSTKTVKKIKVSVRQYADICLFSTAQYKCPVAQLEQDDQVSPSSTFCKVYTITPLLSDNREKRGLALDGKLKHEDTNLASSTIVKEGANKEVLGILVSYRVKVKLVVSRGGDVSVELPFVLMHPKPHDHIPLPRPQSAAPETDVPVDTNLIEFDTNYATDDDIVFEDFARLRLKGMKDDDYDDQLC

[4] = Paclitaxel (PTX)-induced mechanical allodynia, von Frey paw withdrawal threshold; conditions: i.t., 1 mg≈2 nmol as printed
[5] = Pharmacokinetics in mouse; assay type: in vivo
[6] = Pharmacokinetics in monkey (IV and PO); assay type: in vivo; conditions: for AUC: monkey; for MRT last: read-out: MRT0-last
[7] = target: T2, NTSR1; assay: Cellular assay of β-arrestin-2 translocation in cells expressing NTSR1; assay type: cell-based; set-up: expressed in transfected cells; host or cells: HEK293T cell membranes
Description: as §1, §2, §3
Target sequence in this assay (P30989 whole entry): as the sequence (P30989 whole entry) above

T1 sequence (O95665 whole entry, species assumed): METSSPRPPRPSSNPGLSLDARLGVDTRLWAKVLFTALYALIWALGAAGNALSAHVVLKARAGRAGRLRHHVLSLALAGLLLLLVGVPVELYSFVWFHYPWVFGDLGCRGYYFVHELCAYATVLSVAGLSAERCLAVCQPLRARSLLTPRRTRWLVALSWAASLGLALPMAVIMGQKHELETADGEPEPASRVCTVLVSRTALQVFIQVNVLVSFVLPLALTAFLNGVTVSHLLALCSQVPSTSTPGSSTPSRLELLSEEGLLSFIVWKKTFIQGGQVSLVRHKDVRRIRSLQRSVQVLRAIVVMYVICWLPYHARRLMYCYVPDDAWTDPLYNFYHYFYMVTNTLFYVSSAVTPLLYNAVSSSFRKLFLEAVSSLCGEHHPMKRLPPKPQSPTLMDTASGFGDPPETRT

Translocation of β-arrestin-2 to intracellular compartments [1]: not observed
Intracellular translocation of β-arrestin [3]: as effective as NT
CIp ([5]; 5 mpk iv (printed tv)): 2.69 L/h/kg
Vd ([5]; 5 mpk iv (printed tv)): 6.16 L/kg
Cmax ([5]; 30 mpk po (pa [sic])): 1.46 µg/mL
T2/2 ([5]; 30 mpk po (pa [sic])): 5.28 h
Kp at 1 h ([5]; brain, 30 mg/kg, 30 mpk po (pa [sic]), 1 h, read-out: brain:plasma @ 1 h): 54
bioavailability ([5]; plasma, 30 mg/kg, 5 mpk iv and 30 mpk po): 45%
AUC ([5]; route not marked): 4.824 µg·h/mL
Co ([6]; Monkey, IV 5 mg/kg): 4572 ng/mL
T2/2 ([6]; Monkey, IV 5 mg/kg): 4.78 h
CI ([6]; Monkey, PO 20 mg/kg): 0.48 L/h/kg
Co ([6]; Monkey, PO 20 mg/kg): 67.6 ng/mL
Levels in plasma ([6]; following i.v. and p.o. dosing): good levels in plasma
AUC ([6]; plasma, iv, 5 mg/kg, Monkey, IV 5 mg/kg, read-out: AUCo-inf): 4.33 µg·h/mL
AUC ([6]; plasma, iv, 5 mg/kg, Monkey, IV 5 mg/kg, read-out: AUCo-last): 4.28 µg·h/mL
AUC ([6]; plasma, po, 20 mg/kg, Monkey, PO 20 mg/kg, read-out: AUCo-inf): 0.864 µg·h/mL
AUC ([6]; plasma, po, 20 mg/kg, Monkey, PO 20 mg/kg, read-out: AUCo-last): 0.797 µg·h/mL
clearance ([6]; plasma, Monkey, IV 5 mg/kg): 1.15 L/h/kg
MRT last ([6]; plasma, Monkey, IV 5 mg/kg): 2.3 h
Vd ([6]; plasma, Monkey, IV 5 mg/kg, read-out: Vdss): 3.1 L/kg
half-life ([6]; plasma, Monkey, PO 20 mg/kg): 8 h
MRT last ([6]; plasma, Monkey, PO 20 mg/kg): 11.9 h
Structure (SMILES): COc1ccccc1C1CCN(c2nc(C3(F)CC3)nc3ccc(N(C)CCO)cc23)CC1 [SBI-553]
Hemodynamic parameters versus vehicle [2]: no differences
Duration of reduction of mechanical allodynia [4]: > 24 h
PTX-induced mechanical allodynia (increased PWT) versus vehicle ([4]; four weeks after PTX): significant reduction of mechanical allodynia
Translocation of β-arrestin-2 to intracellular compartments [7]: demonstrate translocation of β-arrestin-2
